Here are results for 10 compounds from ChEMBL document CHEMBL6127072, “PROTAC unleashed: Unveiling the synthetic approaches and potential therapeutic applications” (Eur J Med Chem, 2024).

What is called IC50 is the concentration that gives 50% inhibition. A low value points to inhibition by little substance. As usually defined, the Emax is the greatest response seen or fitted, relative to the assay's reference. By EC50 is commonly meant the concentration that produces a half-maximal response. Low readings indicate greater potency, high ones weaker potency. Broadly, the inhibition is the share of the control response that was lost under treatment. Lower therefore signals a response near the control.

In assay [1] the target is T1, 3-hydroxy-3-methylglutaryl-coenzyme A reductase (Homo sapiens, UniProt P04035).
T1 sequence (P04035 whole entry): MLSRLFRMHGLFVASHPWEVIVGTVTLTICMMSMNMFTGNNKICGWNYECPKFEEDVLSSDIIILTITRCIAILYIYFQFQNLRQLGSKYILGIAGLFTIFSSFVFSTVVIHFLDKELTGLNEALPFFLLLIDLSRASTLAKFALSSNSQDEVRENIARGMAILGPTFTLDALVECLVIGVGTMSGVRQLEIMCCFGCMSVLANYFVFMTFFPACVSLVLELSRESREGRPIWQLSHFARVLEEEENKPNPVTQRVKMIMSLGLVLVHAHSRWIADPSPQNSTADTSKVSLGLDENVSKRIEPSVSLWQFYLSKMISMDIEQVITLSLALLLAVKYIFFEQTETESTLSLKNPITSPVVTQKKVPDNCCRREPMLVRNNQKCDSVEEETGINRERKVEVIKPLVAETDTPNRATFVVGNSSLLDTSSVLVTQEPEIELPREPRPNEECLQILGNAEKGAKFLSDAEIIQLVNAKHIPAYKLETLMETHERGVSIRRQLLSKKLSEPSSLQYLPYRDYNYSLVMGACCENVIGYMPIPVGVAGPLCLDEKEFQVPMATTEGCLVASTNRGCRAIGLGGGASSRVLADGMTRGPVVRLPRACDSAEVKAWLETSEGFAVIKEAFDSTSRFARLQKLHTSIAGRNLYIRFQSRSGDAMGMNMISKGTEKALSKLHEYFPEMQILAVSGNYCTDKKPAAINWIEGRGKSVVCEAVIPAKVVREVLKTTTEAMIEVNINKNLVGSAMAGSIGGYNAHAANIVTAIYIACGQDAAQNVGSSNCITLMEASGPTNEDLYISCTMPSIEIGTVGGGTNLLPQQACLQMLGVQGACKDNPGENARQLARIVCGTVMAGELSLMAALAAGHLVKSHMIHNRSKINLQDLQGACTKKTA
Kind of assay: Inhibition of HMG-CoA Reductase (unknown origin).

In assay [2] the target is Protein cereblon/Leucine-rich repeat serine/threonine-protein kinase 2 (Homo sapiens, UniProt Q5S007+Q96SW2). Kind of assay: PROTAC activity at CRBN/LRRK2 in human MOLT-4 cells assessed as induction of protein .degradation incubated for 48 hrs by Western blot analysis. Format: cell-based.
Assay [3] addresses Protein cereblon/Microtubule-associated protein tau (Homo sapiens, UniProt P10636+Q96SW2). Kind of assay: PROTAC activity at CRBN/tau in HEK293T cells measured for 48 hrs by immunoblot analysis. Format: cell-based. For orientation: In western blotting, separated proteins are transferred to a membrane and probed.
Assay [4] deals with T2, Protein cereblon/Bromodomain-containing protein 4 (Homo sapiens, UniProt O60885+Q96SW2). Kind of assay: PROTAC activity at CRBN/BRD4 in human MV4-11 cells assessed as induction of degradation of BRD4 measured after 24 hrs by Western blot analysis. Format: cell-based.
The target of assay [5] is T2, Protein cereblon/Bromodomain-containing protein 4. As to the kind of experiment: PROTAC activity at CRBN/BRD4 in human MV4-11 cells assessed as maximal degradation at 1 uM incubated for 30 mins by Western blot analysis relative to control. Format: cell-based.
For assay [6], the target named is Replicase polyprotein 1ab (Severe acute respiratory syndrome coronavirus 2, UniProt P0DTD1). As to the kind of experiment: Inhibition of SARS CoV-2 MPro.
For another assay, the target named is NS3 protease (Hepacivirus C, UniProt C1KIQ2). Kind of assay: Inhibition of Hepatitis C virus NS3 protease. Details: species or system Hepacivirus hominis.
Assay [7] concerns the target T2, Protein cereblon/Bromodomain-containing protein 4. As to the kind of experiment: PROTAC activity at CRBN/BRD4 in human MV4-11 cells assessed as induction of degradation of BRD4. Format: cell-based.
The target of assay [8] is Protein cereblon/Androgen receptor (Homo sapiens, UniProt P10275+Q96SW2). As to the kind of experiment: PROTAC activity at AR/CRBN in human A549 cells assessed as induction of androgen receptor degradation measured after 1 hr by Western blot analysis. Format: cell-based.
Assay [9] addresses T3, 3-hydroxy-3-methylglutaryl-coenzyme A reductase (Homo sapiens) (UniProt P04035).
T3 sequence (whole entry): T1 sequence (P04035 whole entry)
As to the kind of experiment: Inhibition of HMG-CoA reductase (unknown origin) at 10 uM relative to control.

T2 sequence (Q96SW2 whole entry, looked up, other chains not shown): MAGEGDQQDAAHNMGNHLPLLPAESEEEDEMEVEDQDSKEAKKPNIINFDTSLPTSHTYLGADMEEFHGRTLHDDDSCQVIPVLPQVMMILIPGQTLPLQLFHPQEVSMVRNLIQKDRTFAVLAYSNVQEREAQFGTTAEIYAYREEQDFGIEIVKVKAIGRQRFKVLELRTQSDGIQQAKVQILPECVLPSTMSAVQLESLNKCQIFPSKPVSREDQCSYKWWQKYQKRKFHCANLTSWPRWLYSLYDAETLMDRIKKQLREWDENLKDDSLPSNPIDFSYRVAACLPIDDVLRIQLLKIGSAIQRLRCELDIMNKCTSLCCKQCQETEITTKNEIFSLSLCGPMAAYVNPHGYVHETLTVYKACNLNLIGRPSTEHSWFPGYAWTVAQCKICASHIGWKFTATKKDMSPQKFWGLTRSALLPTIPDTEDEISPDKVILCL
Sequence of Protein cereblon/Androgen receptor (P10275 whole entry): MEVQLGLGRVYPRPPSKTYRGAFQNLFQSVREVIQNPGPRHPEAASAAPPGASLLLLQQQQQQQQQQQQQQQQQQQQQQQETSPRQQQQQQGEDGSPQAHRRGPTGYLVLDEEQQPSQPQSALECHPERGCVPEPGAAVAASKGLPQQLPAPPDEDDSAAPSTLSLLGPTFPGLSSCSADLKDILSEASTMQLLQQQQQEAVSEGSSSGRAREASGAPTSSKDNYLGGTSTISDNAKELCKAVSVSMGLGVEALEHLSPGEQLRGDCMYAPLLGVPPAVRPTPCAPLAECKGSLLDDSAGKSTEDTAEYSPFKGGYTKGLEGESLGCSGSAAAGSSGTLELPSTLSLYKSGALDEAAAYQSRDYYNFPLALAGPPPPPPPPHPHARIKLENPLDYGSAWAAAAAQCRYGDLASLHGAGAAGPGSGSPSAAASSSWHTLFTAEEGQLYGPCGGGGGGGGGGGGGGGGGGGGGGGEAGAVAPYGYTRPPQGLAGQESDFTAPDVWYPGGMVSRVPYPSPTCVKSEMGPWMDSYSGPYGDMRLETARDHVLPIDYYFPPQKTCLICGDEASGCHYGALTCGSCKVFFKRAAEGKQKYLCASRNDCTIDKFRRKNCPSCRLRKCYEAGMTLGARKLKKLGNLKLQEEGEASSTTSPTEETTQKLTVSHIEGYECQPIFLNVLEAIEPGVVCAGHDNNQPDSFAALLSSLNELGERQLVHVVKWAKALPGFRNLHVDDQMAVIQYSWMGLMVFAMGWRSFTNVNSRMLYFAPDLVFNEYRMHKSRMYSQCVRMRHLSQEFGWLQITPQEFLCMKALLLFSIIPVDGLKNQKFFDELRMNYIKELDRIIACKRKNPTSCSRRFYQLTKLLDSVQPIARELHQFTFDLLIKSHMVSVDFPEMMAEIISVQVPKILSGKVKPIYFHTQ
Sequence of Protein cereblon/Androgen receptor (Q96SW2 whole entry): as the sequence (Q96SW2 whole entry, looked up, other chains not shown) above
Sequence of NS3 protease (C1KIQ2 whole entry): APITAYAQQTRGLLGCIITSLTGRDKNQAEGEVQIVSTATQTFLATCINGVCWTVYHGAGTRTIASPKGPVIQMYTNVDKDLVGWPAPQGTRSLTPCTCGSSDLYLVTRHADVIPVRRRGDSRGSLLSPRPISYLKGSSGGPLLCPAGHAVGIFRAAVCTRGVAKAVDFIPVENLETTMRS
Sequence of Protein cereblon/Microtubule-associated protein tau (P10636 whole entry): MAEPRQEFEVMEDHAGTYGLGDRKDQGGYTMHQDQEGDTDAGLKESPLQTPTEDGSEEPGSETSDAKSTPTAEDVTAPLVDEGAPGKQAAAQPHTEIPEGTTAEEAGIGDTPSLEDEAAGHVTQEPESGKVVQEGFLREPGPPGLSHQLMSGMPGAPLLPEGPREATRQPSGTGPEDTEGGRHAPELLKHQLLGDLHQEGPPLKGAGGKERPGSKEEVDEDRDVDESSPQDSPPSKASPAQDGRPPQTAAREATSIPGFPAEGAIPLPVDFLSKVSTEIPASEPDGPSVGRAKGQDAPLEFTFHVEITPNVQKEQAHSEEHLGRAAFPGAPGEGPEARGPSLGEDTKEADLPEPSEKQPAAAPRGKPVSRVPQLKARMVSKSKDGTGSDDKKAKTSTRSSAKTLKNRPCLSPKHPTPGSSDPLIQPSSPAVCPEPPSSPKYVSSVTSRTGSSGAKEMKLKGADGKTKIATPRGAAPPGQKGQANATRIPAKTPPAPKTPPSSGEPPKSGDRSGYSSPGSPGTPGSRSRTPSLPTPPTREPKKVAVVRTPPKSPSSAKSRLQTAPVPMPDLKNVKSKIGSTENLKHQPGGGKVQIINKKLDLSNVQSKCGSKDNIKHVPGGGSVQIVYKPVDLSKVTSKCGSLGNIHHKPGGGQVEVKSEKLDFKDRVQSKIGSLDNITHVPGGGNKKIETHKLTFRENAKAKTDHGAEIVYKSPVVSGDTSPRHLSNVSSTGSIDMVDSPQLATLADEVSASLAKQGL
Sequence of Protein cereblon/Microtubule-associated protein tau (Q96SW2 whole entry): as the sequence (Q96SW2 whole entry, looked up, other chains not shown) above
Sequence of Protein cereblon/Leucine-rich repeat serine/threonine-protein kinase 2 (Q5S007 whole entry): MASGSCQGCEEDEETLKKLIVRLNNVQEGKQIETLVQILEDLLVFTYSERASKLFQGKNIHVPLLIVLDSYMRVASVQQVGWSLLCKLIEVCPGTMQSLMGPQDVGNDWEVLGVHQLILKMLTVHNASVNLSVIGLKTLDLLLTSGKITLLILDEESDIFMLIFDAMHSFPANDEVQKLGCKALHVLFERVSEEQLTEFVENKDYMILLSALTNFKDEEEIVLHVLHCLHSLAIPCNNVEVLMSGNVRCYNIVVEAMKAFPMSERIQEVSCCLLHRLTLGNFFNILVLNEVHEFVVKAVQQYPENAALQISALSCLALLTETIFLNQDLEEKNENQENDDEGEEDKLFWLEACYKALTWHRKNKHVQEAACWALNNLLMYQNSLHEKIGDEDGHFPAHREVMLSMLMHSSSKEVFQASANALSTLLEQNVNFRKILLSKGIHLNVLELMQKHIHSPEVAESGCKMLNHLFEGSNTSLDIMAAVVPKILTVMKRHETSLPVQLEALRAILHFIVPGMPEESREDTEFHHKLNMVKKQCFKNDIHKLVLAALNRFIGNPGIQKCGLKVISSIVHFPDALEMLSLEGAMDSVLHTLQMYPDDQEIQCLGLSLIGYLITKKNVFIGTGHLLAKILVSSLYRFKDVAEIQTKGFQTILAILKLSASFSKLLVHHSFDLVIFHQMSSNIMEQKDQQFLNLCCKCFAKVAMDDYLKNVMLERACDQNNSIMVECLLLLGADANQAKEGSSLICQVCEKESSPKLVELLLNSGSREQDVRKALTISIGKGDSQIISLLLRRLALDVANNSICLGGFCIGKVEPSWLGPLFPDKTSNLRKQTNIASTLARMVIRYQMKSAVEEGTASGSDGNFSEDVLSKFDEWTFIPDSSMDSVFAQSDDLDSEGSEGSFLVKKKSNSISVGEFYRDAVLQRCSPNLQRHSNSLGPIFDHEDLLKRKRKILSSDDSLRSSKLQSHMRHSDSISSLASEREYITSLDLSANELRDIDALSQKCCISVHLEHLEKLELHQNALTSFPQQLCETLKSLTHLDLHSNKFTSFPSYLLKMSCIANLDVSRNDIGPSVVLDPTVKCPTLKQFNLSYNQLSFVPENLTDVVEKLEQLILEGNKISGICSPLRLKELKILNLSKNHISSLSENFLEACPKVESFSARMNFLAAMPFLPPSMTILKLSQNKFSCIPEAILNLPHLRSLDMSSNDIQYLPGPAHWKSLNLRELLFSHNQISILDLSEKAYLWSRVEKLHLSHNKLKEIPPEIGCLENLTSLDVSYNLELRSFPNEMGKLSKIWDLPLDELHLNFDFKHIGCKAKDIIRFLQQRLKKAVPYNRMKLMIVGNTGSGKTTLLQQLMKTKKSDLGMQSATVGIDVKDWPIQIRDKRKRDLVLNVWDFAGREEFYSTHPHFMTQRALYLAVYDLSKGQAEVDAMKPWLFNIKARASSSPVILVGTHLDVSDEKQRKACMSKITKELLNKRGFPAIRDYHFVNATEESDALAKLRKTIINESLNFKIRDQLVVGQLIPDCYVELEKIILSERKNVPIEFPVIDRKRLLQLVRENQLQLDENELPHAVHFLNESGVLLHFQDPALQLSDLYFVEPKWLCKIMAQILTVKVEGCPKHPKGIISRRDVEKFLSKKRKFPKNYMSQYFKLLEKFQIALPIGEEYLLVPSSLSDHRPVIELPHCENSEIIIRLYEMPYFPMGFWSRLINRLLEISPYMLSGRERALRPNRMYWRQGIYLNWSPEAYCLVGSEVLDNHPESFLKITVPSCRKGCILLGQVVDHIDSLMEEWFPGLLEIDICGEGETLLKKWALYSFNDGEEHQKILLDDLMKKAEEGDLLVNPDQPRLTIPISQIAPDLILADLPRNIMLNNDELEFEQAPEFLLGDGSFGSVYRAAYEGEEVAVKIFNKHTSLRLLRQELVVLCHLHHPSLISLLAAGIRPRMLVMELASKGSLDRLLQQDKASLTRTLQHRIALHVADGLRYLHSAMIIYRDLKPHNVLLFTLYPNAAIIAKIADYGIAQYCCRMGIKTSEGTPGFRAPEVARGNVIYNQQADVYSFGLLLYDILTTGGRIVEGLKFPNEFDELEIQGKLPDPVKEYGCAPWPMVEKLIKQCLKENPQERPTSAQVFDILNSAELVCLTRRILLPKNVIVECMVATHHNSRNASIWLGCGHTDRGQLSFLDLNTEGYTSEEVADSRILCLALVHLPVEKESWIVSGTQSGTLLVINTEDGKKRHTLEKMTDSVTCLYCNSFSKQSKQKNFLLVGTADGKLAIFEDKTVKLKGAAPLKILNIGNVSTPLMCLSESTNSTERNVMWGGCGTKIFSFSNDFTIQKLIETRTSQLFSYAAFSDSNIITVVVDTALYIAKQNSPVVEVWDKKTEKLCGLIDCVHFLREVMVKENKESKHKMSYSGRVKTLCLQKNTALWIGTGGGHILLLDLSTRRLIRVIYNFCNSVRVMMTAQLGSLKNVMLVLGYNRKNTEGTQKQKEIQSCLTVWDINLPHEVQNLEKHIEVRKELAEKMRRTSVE
Sequence of Protein cereblon/Leucine-rich repeat serine/threonine-protein kinase 2 (Q96SW2 whole entry): as the sequence (Q96SW2 whole entry, looked up, other chains not shown) above

On to `Cc1ncsc1-c1ccc(CNC(=O)[C@@H]2C[C@@H](O)CN2C(=O)[C@@H](NC(=O)CCCCCCCCCCNC(=O)O[C@@H]2C[C@H](C)C=C3C=C[C@@H](C)[C@@H](CC[C@@H](O)C[C@@H](C)CC(=O)O)[C@@H]32)C(C)(C)C)cc1`, for which, in [1], the IC50 turned out to be 120 nM.

Consider `CC(C)C[C@H](CCOCCOCCOCCNc1ccc(-c2cc(-c3cccc(Br)c3)[nH]n2)cc1)NC(=O)[C@H](O)[C@@H](N)Cc1ccccc1`, for which, in [2], the DC50 was found to be 5.04 µM.

The compound `O=C(CCc1ccc2[nH]c3ccncc3c2c1)NCCOCCCOCCNc1cccc2c1C(=O)N(C1CCC(=O)NC1=O)C2=O` (stereo unspecified) gave a DC50 in [3] of 75 nM. Turning to `Cc1sc2c(c1C)C(c1ccc(Cl)cc1)=N[C@@H](CC(=O)NCCCCCNCCOc1ccc(C3CC(=O)NC(=O)C3)cc1)c1nnc(C)n1-2`, the DC50 in [4] was less than 1 nM. Also, the Emax in assay [5] is 99%. Regarding `Cc1ncsc1-c1ccc(CNC(=O)[C@@H]2C[C@@H](O)CN2C(=O)[C@@H](NC(=O)CCOCCOCCOCCNC(=O)[C@]23CCC(C)(C)C[C@H]2[C@H]2CC[C@@H]4[C@@]5(C)CC[C@H](O)C(C)(C)[C@@H]5CC[C@@]4(C)[C@]2(C)CC3)C(C)(C)C)cc1`, the 50% inhibitory concentration (IC50) in assay [6] worked out at 1140 nM. Compound `CCC[C@H](NC(=O)[C@H]1N(C(=O)[C@@H](NC(=O)[C@@H](NC(=O)c2cnc(CC(=O)NCCOCCOCCOc3cc4c5c(cccc5c3)C(=O)N(C3CCC(=O)NC3=O)C4=O)cn2)C2CCCCC2)C(C)(C)C)C[C@]2(C)CCC[C@]12C)C(=O)C(=O)NC1CC1` (stereo partly specified) displayed a concentration giving a half-maximal response (EC50) on NS3 protease of 50 nM.

`C[C@@H](OC(C)(C)C)[C@H](NC(=O)OCc1cccc(OCCCCCOc2cccc3c2C(=O)N(C2CCC(=O)NC2=O)C3=O)c1)C(=O)N[C@H](CN[C@H](C=O)C[C@@H]1CCNC1=O)CC1CCCCC1` (stereo partly specified): a half-maximal response in [6] (EC50) required 290 nM. As for `Cc1cc(-c2cc(NC(=O)CCC(=O)NCCOCCOCCNc3ccc4c(c3)C(=O)N(C3CCC(=O)NC3=O)C4=O)ccc2Oc2ccccc2)n2cc[nH]c(=O)c12` (stereo unspecified), in [7], the DC50 came to 0.75 nM. Regarding `CC1(C)C(=O)N(c2ccc(C#N)c(C(F)(F)F)c2)C(=O)N1c1ccc(-c2ccc(O[C@@H]3CCN(C(=O)C4CCN(c5ccc6c(c5)C(=O)N(C5CCC(=O)NC5=O)C6=O)CC4)C3)cc2)cc1` (stereo partly specified), the DC50 in assay [8] was 75 nM.

With `Cc1ncsc1-c1ccc(CNC(=O)[C@@H]2C[C@@H](O)CN2C(=O)[C@@H](NC(=O)CCCCCCCCCCNC(=O)O[C@@H]2C[C@H](C)C=C3C=C[C@@H](C)[C@@H](CC[C@@H]4C[C@@H](O)CC(=O)O4)[C@@H]32)C(C)(C)C)cc1`, in assay [9], the inhibition was 56%.
